Laboratory results published in ChEMBL document CHEMBL3885881, “DrugMatrix”.

Species: Rattus norvegicus
Experiment: DrugMatrix - Regimen: Daily Repeat
Assay type: toxicity, organism-based, Sprague-Dawley
Design: regimen Daily Repeat, gender Male, age 6-8 weeks
Conditions: in vivo, po, […], route oral GAVAGE, dose 7.5 mg/Kg, dose level Low; for ABSOLUTE BASOPHIL / ABSOLUTE EOSINOPHIL / ABSOLUTE LYMPHOCYTE / ABSOLUTE MONOCYTE / ABSOLUTE SEGMENTED NEUTROPHIL / BASOPHIL / EOSINOPHIL / ERYTHROCYTE COUNT / HEMATOCRIT / HEMOGLOBIN / LEUKOCYTE COUNT / LYMPHOCYTE / MEAN CORPUSCULAR HEMOGLOBIN / MEAN CORPUSCULAR HEMOGLOBIN CONCENTRATION / MEAN CORPUSCULAR VOLUME / MONOCYTE / NEUTROPHIL / NUCLEATED RED BLOOD CELLS / PLATELET COUNT: tissue Blood; for ALANINE AMINOTRANSFERASE / ALBUMIN / ALKALINE PHOSPHATASE / ASPARTATE AMINOTRANSFERASE / BLOOD UREA NITROGEN / CARBON DIOXIDE / CHLORIDE / CHOLESTEROL / CREATINE PHOSPHOKINASE / CREATININE / GLUCOSE / LACTATE DEHYDROGENASE / LIPASE / PHOSPHORUS / POTASSIUM / SODIUM / TOTAL BILIRUBIN / TOTAL PROTEIN / URIC ACID: tissue Plasma

SMILES: C[C@@H]1CC[C@@]2(OC1)O[C@H]1[C@@H](O)[C@H]3[C@@H]4CC[C@H]5C[C@@H](O[C@@H]6O[C@H](CO)[C@H](O[C@@H]7O[C@H](CO)C(O)[C@H](O[C@@H]8OC[C@@H](O)[C@H](O)[C@H]8O)[C@H]7O[C@@H]7O[C@H](CO)[C@H](O)[C@H](O[C@@H]8O[C@H](CO)[C@@H](O)[C@H](O)[C@H]8O)[C@H]7O)[C@H](O)[C@H]6O)[C@H](O)C[C@]5(C)[C@H]4CC[C@]3(C)[C@H]1[C@@H]2C (stereo partly specified) [DIGITONIN]
- ABSOLUTE BASOPHIL (72 h, time 3 day): 0 CELLS/uL
- ABSOLUTE EOSINOPHIL (72 h, time 3 day): 77.33 CELLS/uL
- ABSOLUTE LYMPHOCYTE (72 h, time 3 day): 10391.33 CELLS/uL
- ABSOLUTE MONOCYTE (72 h, time 3 day): 34.33 CELLS/uL
- ABSOLUTE SEGMENTED NEUTROPHIL (72 h, time 3 day): 1397 CELLS/uL
- BASOPHIL (72 h, time 3 day): 0%
- EOSINOPHIL (72 h, time 3 day): 0.67%
- ERYTHROCYTE COUNT (72 h, time 3 day): 5.69 x10E6/uL
- HEMATOCRIT (72 h, time 3 day): 35.5%
- HEMOGLOBIN (72 h, time 3 day): 13.27 G/DL
- LEUKOCYTE COUNT (72 h, time 3 day): 11.9 x10E3/uL
- LYMPHOCYTE (72 h, time 3 day): 87.33%
- MEAN CORPUSCULAR HEMOGLOBIN (72 h, time 3 day): 23.33 pg
- MEAN CORPUSCULAR HEMOGLOBIN CONCENTRATION (72 h, time 3 day): 37.4 G/DL
- MEAN CORPUSCULAR VOLUME (72 h, time 3 day): 62.47 fL
- MONOCYTE (72 h, time 3 day): 0.33%
- NEUTROPHIL (72 h, time 3 day): 11.67%
- NUCLEATED RED BLOOD CELLS (72 h, time 3 day): 0 /100WBC
- PLATELET COUNT (72 h, time 3 day): 1266.67 x10E3/uL
- ALANINE AMINOTRANSFERASE (72 h, time 3 day): 59.33 u/L
- ALBUMIN (72 h, time 3 day): 4.13 G/DL
- ALKALINE PHOSPHATASE (72 h, time 3 day): 424 u/L
- ASPARTATE AMINOTRANSFERASE (72 h, time 3 day): 79 u/L
- BLOOD UREA NITROGEN (72 h, time 3 day): 14 mg/dL
- CARBON DIOXIDE (72 h, time 3 day): 25.67 mmol/L
- CHLORIDE (72 h, time 3 day): 100.67 MEQ/L
- CHOLESTEROL (72 h, time 3 day): 70.67 mg/dL
- CREATINE PHOSPHOKINASE (72 h, time 3 day): 187 u/L
- CREATININE (72 h, time 3 day): 0.18 mg/dL
- GLUCOSE (72 h, time 3 day): 156.33 mg/dL
- LACTATE DEHYDROGENASE (72 h, time 3 day): 100.33 u/L
- LIPASE (72 h, time 3 day): 8.67 u/L
- PHOSPHORUS (72 h, time 3 day): 12.73 mg/dL
- POTASSIUM (72 h, time 3 day): 6.51 MEQ/L
- SODIUM (72 h, time 3 day): 145.03 MEQ/L
- TOTAL BILIRUBIN (72 h, time 3 day): 0.23 mg/dL
- TOTAL PROTEIN (72 h, time 3 day): 5.73 G/DL
- URIC ACID (72 h, time 3 day): 2.23 mg/dL
- ABSOLUTE BASOPHIL (120 h, time 5 day): 0 CELLS/uL
- ABSOLUTE EOSINOPHIL (120 h, time 5 day): 102 CELLS/uL
- ABSOLUTE LYMPHOCYTE (120 h, time 5 day): 14620 CELLS/uL
- ABSOLUTE MONOCYTE (120 h, time 5 day): 219 CELLS/uL
- ABSOLUTE SEGMENTED NEUTROPHIL (120 h, time 5 day): 1792.33 CELLS/uL
- BASOPHIL (120 h, time 5 day): 0%
- EOSINOPHIL (120 h, time 5 day): 0.67%
- ERYTHROCYTE COUNT (120 h, time 5 day): 5.47 x10E6/uL
- HEMATOCRIT (120 h, time 5 day): 35.23%
- HEMOGLOBIN (120 h, time 5 day): 13.57 G/DL
- LEUKOCYTE COUNT (120 h, time 5 day): 16.73 x10E3/uL
- LYMPHOCYTE (120 h, time 5 day): 87.33%
- MEAN CORPUSCULAR HEMOGLOBIN (120 h, time 5 day): 24.83 pg
- MEAN CORPUSCULAR HEMOGLOBIN CONCENTRATION (120 h, time 5 day): 38.5 G/DL
- MEAN CORPUSCULAR VOLUME (120 h, time 5 day): 64.37 fL
- MONOCYTE (120 h, time 5 day): 1.33%
- NEUTROPHIL (120 h, time 5 day): 10.67%
- NUCLEATED RED BLOOD CELLS (120 h, time 5 day): 0 /100WBC
- PLATELET COUNT (120 h, time 5 day): 1216 x10E3/uL
- ALANINE AMINOTRANSFERASE (120 h, time 5 day): 57.33 u/L
- ALBUMIN (120 h, time 5 day): 4.3 G/DL
- ALKALINE PHOSPHATASE (120 h, time 5 day): 437 u/L
- ASPARTATE AMINOTRANSFERASE (120 h, time 5 day): 80.33 u/L
- BLOOD UREA NITROGEN (120 h, time 5 day): 14.67 mg/dL
- CARBON DIOXIDE (120 h, time 5 day): 28.67 mmol/L
- CHLORIDE (120 h, time 5 day): 100.67 MEQ/L
- CHOLESTEROL (120 h, time 5 day): 53.67 mg/dL
- CREATINE PHOSPHOKINASE (120 h, time 5 day): 222.67 u/L
- CREATININE (120 h, time 5 day): 0.22 mg/dL
- GLUCOSE (120 h, time 5 day): 160.33 mg/dL
- LACTATE DEHYDROGENASE (120 h, time 5 day): 207.67 u/L
- LIPASE (120 h, time 5 day): 8 u/L
- PHOSPHORUS (120 h, time 5 day): 11.63 mg/dL
- POTASSIUM (120 h, time 5 day): 6.09 MEQ/L
- SODIUM (120 h, time 5 day): 144.37 MEQ/L
- TOTAL BILIRUBIN (120 h, time 5 day): 0.2 mg/dL
- TOTAL PROTEIN (120 h, time 5 day): 6.03 G/DL
- URIC ACID (120 h, time 5 day): 1.47 mg/dL
